Measurements taken from patent publication US20250197864A1, “LNCRNA TRANSCRIPTS IN MELANOMAGENESIS” (The Regents of the University of California, priority 2021, published 2025).

Test system: gene expression in D04 melanoma cells
Experiment: RNA-Seq differential expression analysis (DESeq2)
Assay type: cell-based, human
Conditions: up-regulated list
Experimental: Total RNA was isolated using the RNeasy mini Kit (QIAGEN) following the manufacturer's protocol. Quality check for extracted RNA was done using 2100 Bioanalyzer (Agilent Technologies, USA) or Tapestation System (Agilent Technologies, USA). […] For samples used for identification of MAPK-responsive lncRNAs, paired-end, 101-bp sequencing was performed by Centrillion Genomic Services (Centrillion Biosciences, USA) on an Illumina HiSeq 2000. For DE gene analysis of ASO-transfected D04 samples, paired-end, 2×150-bp sequencing was performed by Genewiz (USA) on a Illumina HiSeq.
Sequence reads were aligned to the human genome (hg19) using TopHat (Version 2.0.11).
Differential expression (DE) analysis was done using DESeq2. Differentially expressed genes were defined by more than 1.5-fold changes (log 2 >0.58 or <−0.58) in expression with FDR<0.05. GO term analysis was done using DAVID Functional Annotation Clustering analysis.
To examine the biomolecular changes upon TRASH-inhibition in melanoma, D04 cells were treated with TRASH-ASOs (SEQ ID NO:15) and Control-ASOs and RNA was extracted and used for RNA-Seq. […] These GO terms consisted of genes encoding growth factors, tyrosine kinases, G protein coupled receptor subunits, and collagen subunits. Scatter plot diagram showing differential gene expression after TRASH-ASO treatment compared to Control-ASO treatment. (cut-off for significance was adjusted p-value <0.05). Data was obtained from RNA-Seq of D04 melanoma cells, treatment period was three days. (FIG. 5c)

Which “log2FoldChange BBC3” value (ENSG00000105327) does the source give for “GACTGGAGATAATTAA (gapmer, pattern not given here) [SEQ ID NO: 15, GapmeR ASO targeting AC004540.4 (TRASH), exon region of both isoforms; used for in vitro experiments]” here?
The value was 0.619.

And the “log2FoldChange CD33” value (ENSG00000105383)?
Its value is 0.929.

And the “log2FoldChange PLA2G4C” value (ENSG00000105499)?
The value was 0.608.

What about the “log2FoldChange HBP1” value (ENSG00000105856) of the same sequence?
Its value is 0.6116.

And the “log2FoldChange ATP6V0A4” value (ENSG00000105929)?
The value was 0.8207.

And the “log2FoldChange CPED1” value (ENSG00000106034)?
Its value is 0.7035.

And the “log2FoldChange SERPINE1” value (ENSG00000106366)?
The value was 0.6383.

And the “log2FoldChange ABI3” value (ENSG00000108798)?
The value was 0.9913.

And the “log2FoldChange SLC16A6” value (ENSG00000108932)?
Its value is 0.91.

What about the “log2FoldChange LPXN” value (ENSG00000110031) of the same sequence?
Its value is 0.7633.

What about the “log2FoldChange ATG2A” value (ENSG00000110046) of the same sequence?
Its value is 0.5858.

What about the “log2FoldChange CHKA” value (ENSG00000110721) of the same sequence?
The value was 0.7402.

And the “log2FoldChange RASAL1” value (ENSG00000111344)?
Its value is 0.896.

And the “log2FoldChange RBM24” value (ENSG00000112183)?
The value was 0.8237.

And the “log2FoldChange TREML2” value (ENSG00000112195)?
The value was 1.205.

What about the “log2FoldChange WWC1” value (ENSG00000113645) of the same sequence?
The value was 0.6261.

And the “log2FoldChange STC2” value (ENSG00000113739)?
The value was 0.7339.

What about the “log2FoldChange TNNC1” value (ENSG00000114854) of the same sequence?
The value was 1.043.

And the “log2FoldChange IL1A” value (ENSG00000115008)?
The value was 0.7632.

And the “log2FoldChange ACTL8” value (ENSG00000117148)?
The value was 1.133.

What about the “log2FoldChange TSPAN1” value (ENSG00000117472) of the same sequence?
Its value is 0.7518.

What about the “log2FoldChange IRF6” value (ENSG00000117595) of the same sequence?
Its value is 0.7078.

What about the “log2FoldChange DIEXF” value (ENSG00000117597) of the same sequence?
Its value is 0.6611.

And the “log2FoldChange MUC5B” value (ENSG00000117983)?
The value was 0.599.

And the “log2FoldChange NR4A3” value (ENSG00000119508)?
Its value is 1.046.

What about the “log2FoldChange GPR75” value (ENSG00000119737) of the same sequence?
The value was 0.8604.

What about the “log2FoldChange AVPI1” value (ENSG00000119986) of the same sequence?
The value was 0.7469.

What about the “log2FoldChange DUSP1” value (ENSG00000120129) of the same sequence?
The value was 1.094.

What about the “log2FoldChange FABP3” value (ENSG00000121769) of the same sequence?
Its value is 0.9724.

And the “log2FoldChange CCRL2” value (ENSG00000121797)?
Its value is 1.162.

And the “log2FoldChange PAEP” value (ENSG00000122133)?
Its value is 0.8405.

And the “log2FoldChange PLAU” value (ENSG00000122861)?
The value was 1.118.

What about the “log2FoldChange SLC25A16” value (ENSG00000122912) of the same sequence?
Its value is 0.8143.

What about the “log2FoldChange KCNK15” value (ENSG00000124249) of the same sequence?
The value was 1.203.

And the “log2FoldChange PAIP2B” value (ENSG00000124374)?
The value was 1.015.

And the “log2FoldChange MT1G” value (ENSG00000125144)?
Its value is 1.136.

And the “log2FoldChange MT2A” value (ENSG00000125148)?
The value was 0.8492.

And the “log2FoldChange BMP4” value (ENSG00000125378)?
Its value is 0.657.

What about the “log2FoldChange IL1B” value (ENSG00000125538) of the same sequence?
Its value is 1.059.

What about the “log2FoldChange PSD4” value (ENSG00000125637) of the same sequence?
The value was 0.7899.

And the “log2FoldChange ARMCX1” value (ENSG00000126947)?
The value was 0.5964.

What about the “log2FoldChange BEST3” value (ENSG00000127325) of the same sequence?
Its value is 1.14.

And the “log2FoldChange KLF2” value (ENSG00000127528)?
The value was 0.7602.

What about the “log2FoldChange AKAP9” value (ENSG00000127914) of the same sequence?
The value was 0.609.

And the “log2FoldChange KRT17” value (ENSG00000128422)?
The value was 1.116.

What about the “log2FoldChange VGF” value (ENSG00000128564) of the same sequence?
The value was 0.9691.

What about the “log2FoldChange CSRP3” value (ENSG00000129170) of the same sequence?
Its value is 1.122.

What about the “log2FoldChange AJUBA” value (ENSG00000129474) of the same sequence?
The value was 0.6241.

What about the “log2FoldChange CDH15” value (ENSG00000129910) of the same sequence?
The value was 0.8921.

What about the “log2FoldChange SYT5” value (ENSG00000129990) of the same sequence?
The value was 1.139.

What about the “log2FoldChange UNC13A” value (ENSG00000130477) of the same sequence?
The value was 1.071.

And the “log2FoldChange ULBP3” value (ENSG00000131019)?
The value was 0.6552.

What about the “log2FoldChange ZBED3” value (ENSG00000132846) of the same sequence?
Its value is 0.778.

And the “log2FoldChange BEX2” value (ENSG00000133134)?
Its value is 0.7157.

What about the “log2FoldChange BEX1” value (ENSG00000133169) of the same sequence?
The value was 0.6316.

And the “log2FoldChange BTG1” value (ENSG00000133639)?
The value was 0.69.

And the “log2FoldChange DYDC2” value (ENSG00000133665)?
Its value is 0.987.

What about the “log2FoldChange TRPM1” value (ENSG00000134160) of the same sequence?
The value was 1.155.

And the “log2FoldChange PTPN22” value (ENSG00000134242)?
The value was 1.051.

What about the “log2FoldChange FST” value (ENSG00000134363) of the same sequence?
The value was 0.8947.

What about the “log2FoldChange SLC37A2” value (ENSG00000134955) of the same sequence?
The value was 0.7294.

And the “log2FoldChange NT5E” value (ENSG00000135318)?
The value was 0.6889.

And the “log2FoldChange RDH5” value (ENSG00000135437)?
The value was 0.8676.

And the “log2FoldChange PKIB” value (ENSG00000135549)?
The value was 0.7917.

And the “log2FoldChange DYSF” value (ENSG00000135636)?
Its value is 0.9396.

And the “log2FoldChange LCP1” value (ENSG00000136167)?
Its value is 1.021.

What about the “log2FoldChange IL6” value (ENSG00000136244) of the same sequence?
Its value is 0.8209.

What about the “log2FoldChange MYC” value (ENSG00000136997) of the same sequence?
Its value is 0.6121.

And the “log2FoldChange RNF144B” value (ENSG00000137393)?
Its value is 1.04.

What about the “log2FoldChange ARHGAP29” value (ENSG00000137962) of the same sequence?
The value was 0.6178.

And the “log2FoldChange AOX1” value (ENSG00000138356)?
Its value is 1.099.

And the “log2FoldChange FGF5” value (ENSG00000138675)?
Its value is 0.9785.

What about the “log2FoldChange ANXA3” value (ENSG00000138772) of the same sequence?
Its value is 0.8166.

What about the “log2FoldChange SLC46A3” value (ENSG00000139508) of the same sequence?
Its value is 0.6816.

What about the “log2FoldChange CYP11A1” value (ENSG00000140459) of the same sequence?
Its value is 0.9698.

What about the “log2FoldChange RHCG” value (ENSG00000140519) of the same sequence?
Its value is 1.166.

And the “log2FoldChange ITGAX” value (ENSG00000140678)?
Its value is 0.7501.

And the “log2FoldChange MAP1LC3B” value (ENSG00000140941)?
Its value is 0.7968.

What about the “log2FoldChange NPC1” value (ENSG00000141458) of the same sequence?
Its value is 0.6586.

What about the “log2FoldChange SLC14A1” value (ENSG00000141469) of the same sequence?
Its value is 1.217.

And the “log2FoldChange NECTIN4” value (ENSG00000143217)?
Its value is 1.206.

And the “log2FoldChange ABL2” value (ENSG00000143322)?
The value was 0.8447.

And the “log2FoldChange RORC” value (ENSG00000143365)?
The value was 0.8825.

And the “log2FoldChange TUFT1” value (ENSG00000143367)?
The value was 0.8984.

And the “log2FoldChange DYRK3” value (ENSG00000143479)?
The value was 0.5876.

And the “log2FoldChange DUSP10” value (ENSG00000143507)?
Its value is 0.6264.

And the “log2FoldChange SLC20A1” value (ENSG00000144136)?
The value was 0.585.
